One compound from US5962456A, “N-acylpiperazine derivative, anti-ulcer drug, and antibacterial drug” (Shiseido Co., Ltd., priority 1996, dated 1999) can be followed below.

One experiment has as its system stress ulcer. The experiment is described as follows: WIS: Restraint and Water Immersion Stress-Induced Ulcer Inhibition Test. In kind it is in vivo, rat (male Crj:SD or Slc:SD). As to conditions: 100 mg/kg oral, rats, 7 hours restraint and water immersion (21° C.). The procedure: WIS: Restraint and Water Immersion Stress-Induced Ulcer Inhibition Test
The degree of inhibition of the stress ulcer formation is tested.
Male Crj:SD or Slc:SD rats (6 to 7-week-old) were fasted overnight, but allowed free access to water. Each group has 5 to 8 of these rats. […] To a control group, the vehicle was administered. 10 minutes later, the rats were placed in a stress cage and immersed to the level of xipfoid process in a water bath (21° C.) for 7 hours. At the end of the stress, the rats were sacrificed by inhalation of ether or carbon dioxide. Then, the stomach of each was removed, inflated by injecting 10 ml of 5% formalin neutral buffer solution, and immersed in 1% formalin neutral buffer solution for 30 minutes or more to be fixed. The stomach was incised along the greater curvature and then the length of each erosion in the glandular portion was determined under dissecting microscope. The sum of the length of erosions per stomach was defined as ulcer index (UI).
The effect obtained when 100 mg/kg of the sample compound had been administered was expressed as ulcer formation inhibitory rate (%) as follows:
ulcer formation inhibitory rate (%)=(1-(UI in sample group/UI in control group))×100

In experiment [1] the test system is isolated gastric fundic gland. The experiment is described as follows: CAP: Acid Secretion Inhibition Test In Vitro ([14C]-aminopyrine uptake). It counts as cell-based, rabbit (male Japanese White). As to conditions: Oryctolagus cuniculus; final concentration 10^-5 M; histamine 10^-5 M; rabbit gastric fundic glands; read-out: CAP acid secretion inhibitory rate. The procedure: CAP: Acid Secretion Inhibition Test In Vitro
The acid secretion inhibitory activity in a cell level is studied. It can also be used for studying the mechanism of the effect. […]
ii-a) Preparation of Isolated Gastric Fundus Gland Suspension
First, an isolated gastric fundic gland sample was prepared. Namely, a male Japanese White rabbit (2.5 to 3 kg) was anesthetized to death with Nembutal™ and then the abdomen was incised. Immediately thereafter, the stomach was removed and, after its pyloric and cardiac antrum were severed, incised along its greater curvature into two sheets. The gastric contents adhering to the mucosal surface was washed out with ice-cooled PBS (-) and then carefully washed therein. The gastric wall was spread on a cork board with its mucosal surface facing up and the feed and mucus thereon were completely removed with sterile gauze. The mucosa was separated therefrom by a spatula and then collected in ice-cooled PBS (-). After being washed twice with PBS (-), the mucosa was minced into 2-3 mm^3 pieces by scissors. These pieces were further washed twice with a nutrient solution. […] Into 70 ml of the nutrient solution containing 1 mg/ml of collagenase, minced mucosal pieces were dispersed and intensely stirred in a conical flask with a stirrer at 37° C. for 40 to 60 minutes. During this period, 100% O2 was sprayed on the nutrient solution surface and the pH was appropriately measured such that it was immediately adjusted to pH 7.4, when the value was therebelow, with a base. The nutrient solution was added to the reaction solution so as to attain the total amount of about 200 ml. After being filtered through a mesh, the suspension was divisionally introduced into 50 ml centrifuge tubes and left for 15 minutes such that gastric fundic gland was deposited. The supernatant was repeatedly removed by an aspirator, dispersed in the nutrient solution, and then left such that the gastric fundic gland was washed three times. At this time, without using a pipette, the suspension was alternately introduced into two centrifuge tubes so as to effect dispersion. The number of cells was counted under microscope and adjusted to 1.6×10^6 cells/ml. […]
ii-b) [^14 C]-aminopyrine Uptake Test
Then, [^14 C]-aminopyrine uptake test was performed. After an Eppendorf tube was weighed, 10 μl (final concentration: 10^-5 M) of histamine dissolved in the above-mentioned nutrient solution, 10 μl (final concentration: 10^-5 M) of the test compound dissolved in DMSO, and 10 μl (final concentration: 0.05 μCi/ml) of [^14 C]-aminopyrine diluted with the nutrient solution were introduced therein and then 970 μl of the isolated gastric fundic gland suspension prepared above was added thereto. […] After being centrifuged for 30 minutes, 200 μl of its supernatant was collected into a mini-vial, while the rest was removed by an aspirator. The gland pellet was completely dried as the tube with its lid being opened was kept for one night in a drying oven at 80° C. and then the lid was closed and the weight was determined at room temperature. Then 100 μl of 1N KOH was added thereto and the tube with its lid being closed was treated at 60° C. for 1 to 2 hours so as to dissolve the pellet. Then, the contents thereof were transferred to a mini-vial. Into the mini-vial containing the supernatant or gland pellet, 4 ml of Atomlite™ was added and then the radioactivity was measured by a liquid scintillation counter. Here, after the radioactivity of the gland pellet was corrected by using a sample in which 20 mM of NaSCN was added so as to cancel the hydrogen ion concentration gradient, the integration ratio of aminopyrine specifically trapped by the gland pellet was calculated. This experiment was performed in duplicate. […]
ii-c) Calculation of the Accumulation Rate of Aminopyrine
Here, its principle will be briefly explained. In the isolated gastric fundic gland, acid is accumulated in a space between its secretory tubule and intraglandular cavity.

With `CC(C)=CCC/C(C)=C/COc1ccc(C(=O)N2CCN(CCNC(=O)c3ccc4c(c3)OCO4)CC2)cc1` [Example 1, 1-(4-geranyloxy)benzoyl-4-[2-(piperonyloylamino)ethyl]piperazine], in the experiment with stress ulcer, the “WIS ulcer formation inhibitory rate” value was 81%. The inhibition at 10 µM in experiment [1] was 100%.
